Experiments:
[1] = Acute toxicity (method of Lichtfield and Wilcoxon); settings: in vivo
Text: The compound used for such tests is the hydrochloride (LA 2511).

[2] = test system: patients with true hypertension; assay: Clinical experimentation involving 22 hospital patients; type: in vivo, Man; settings: of 22 patients; criteria: systolic L1, diastolic L2
Description: Clinical experimentation involving 22 hospital patients.
Procedure: The patients selected suffer from true hypertension involving both systolic pressure and diastolic pressure. Before starting treatment with the compound, it was ascertained, during a period of time of 8 days, in the absence of any hypotensive treatment, that this hypertension was stable in the morning, at noon and in the evening, in standing, sitting and recumbent positions.
1. Effect on blood pressure: the result was evaluated on the basis of the blood pressure depression, expressed as cm of mercury, according to the following criteria: Result Nil Fair Good Very good __________________________________________________________________________ Systolic pressure depression 0 < 3 cm 3-4 cm > 4 cm Diastolic pressure depression 0 <1.5 cm 1.5-2 cm >2 cm __________________________________________________________________________
2. Effect on functional signs: headaches, dizziness, floating specks, ear buzzing.

[3] = Chronic toxicity, 6 months, rats; type: in vivo; settings: up to maximum dose tested 400 mg/kg
[4] = Teratogenicity in rabbits; type: in vivo; settings: 200 mg/kg
normotensive subjects = assay: Effects in normotensive subjects; type: in vivo, Man
Description: Prior to the therapeutic tests, toxicological and clinical pharmacological investigations were conducted in normotensive Man. […] The systolic pressure is depressed by 2 to 4 cm of mercury, while the diastolic pressure is depressed by 2 cm, on the average.
Dosage of compound administered: 1 tablet containing 400 mg active ingredient during 1 week, 2 tablets during 1 week, 3 tablets during 3 weeks.
Dosage of compound administered: 1 tablets containing 400 mg active ingredient during 3 weeks, 2 tablets during the 5 following weeks.

hypertensive subjects [5] = assay: Treatment of hypertensive subjects with the compound in combination with other anti-hypertensive materials; type: in vivo, Man
Description: Combinations of the compound of this invention with other anti-hypertensiveagents were also investigated.
The most important combination is that with diuretic drugs, as predicted from the efficiency data provided by the pharmacological investigation. A reduction of the dosage of compound of about 50% and/or a three-fold duration of the action are obtained.
Dosage of compound administered: 5 tablets containing 400 mg active compound daily during 30 days. Associated treatment: salt-free diet, potassium chloride, furosemide: one 40 mg tablet, 3 times a week.
Dosage of compound administered: 5 tablets containing 400 mg active material, daily during 30 days. Associated treatment: potassium chloride, altizide: 15 mg; spironolactone: 25 mg.
Treatment during one month with the compound of this invention: 4 tablets daily, containing each 400 mg active ingredient, taken two at a time, plus 4 tablets daily of α-methyl dopa, containing each 250 mg active ingredient, taken two at a time.

[6] = Chronic toxicity, 6 months, Rhesus monkeys; type: in vivo; settings: up to maximum dose tested 400 mg/kg
[7] = test system: rats made hypertensive according to Goldblatt's method; assay: Anti-hypertensive effect in Goldblatt hypertensive rats; type: in vivo
Text: (§1) The anti-hypertensive effect was investigated:
3. in rats made hypertensive according to Goldblatt's method (unilateral renal arterial constriction with contralateral nephrectomy).

hypertensive subjects [8] = assay: Therapeutic effects in hypertensive subjects, compound alone
Procedure: About a hundred patients were treated with the compound during several months.
The compound was tested alone at dosages from 300 mg to 5 g daily. […] The results just set forth relate to determinations made with the patients in a recumbent position.

Teratogenicity in rats = type: in vivo; settings: 600 mg/kg
[9] = test system: dogs made hypertensive by the bilateral destruction of the sensory endings of the sino-carotid area; assay: Anti-hypertensive effect in dogs with destroyed sino-carotid sensory endings; type: in vivo
Text: as §1
1. in dogs made hypertensive by the bilateral destruction of the sensory endings of the sino-carotid area;

[10] = test system: rats made hypertensive by implantation of two 25 mg deoxycorticosterone pellets combined with a sodium enriched diet; assay: Anti-hypertensive effect in deoxycorticosterone/sodium hypertensive rats; type: in vivo
Description: as §1
2. in rats made hypertensive by implantation of two 25 mg deoxycorticosterone pellets combined with a sodium enriched diet;

hypertensive subjects [11] = assay: Treatment of a hypertensive patient with α-methyldopa alone; type: in vivo, Man; settings: TRU... Yves
Description: Strong functional signs (headaches, dizziness). Treated during one month with α-methyldopa: 2, then 4, then 6 tablets per day, containing each 250 mg active ingredient.

[12] = oral, 200 mg to 5 g daily, normotensive
[13] = GAU... Albert, 5 x 400 mg daily 30 days + altizide 15 mg, spironolactone 25 mg, potassium chloride, prior 21/13
[14] = GAU... Albert, + altizide, spironolactone
[15] = SUF... Auguste, 5 x 400 mg daily 30 days + furosemide 40 mg 3 times a week, potassium chloride, salt-free diet, prior 24/12
[16] = TRU... Yves, 4 x 400 mg daily + α-methyldopa 4 x 250 mg daily, one month, after α-methyldopa alone 21/111/2
[17] = combination with diuretic drugs
[18] = fraction of subjects, alone, 300 mg to 5 g daily, recumbent
[19] = more than half the subjects, alone, 300 mg to 5 g daily, recumbent
[20] = one-fourth of the patients, alone, 300 mg to 5 g daily, recumbent
[21] = use as anti-hypertensive material in Man

## CCN(CC)CCCNC(=O)c1cc([N+](=O)[O-])cc[n+]1[O-] [LA 2511, N-(3-diethylaminopropyl)-4-nitro-1-oxide-pyridine-2-carboxamide]
[1]
  LD50: 2000 mg/kg
[2]
  number of "fair" results: 5 results
  number of "good" and "very good" results: 13 results
  number of "nil" results: 4 results
[3]
  toxic effect on chronic treatment: no toxic effect
[4]
  teratogenic effect: No teratogenic effect
Normotensive subjects; CHA... Paul, 400 mg tablets, 1 for 3 weeks, 2 for 5 weeks, initial 13/8
  blood pressure after treatment, recumbent, evening: 11/6
Normotensive subjects; CHA... Paul, 400 mg tablets, 1 for 3 weeks, 2 for 5 weeks, initial 14/8
  blood pressure after treatment, recumbent, morning: 12/6
Normotensive subjects; CHA... Paul, 8 weeks
  tolerance: Excellent tolerance
Normotensive subjects; VUI... Robert, 5 weeks
  tolerance: Excellent tolerance
Normotensive subjects; [12]
  depression of the blood pressure: moderate gradual depression
  influence on the heart: No deleterious influence
  systolic pressure depression: 2 to 4 cm of mercury
Normotensive subjects; oral, 200 mg to 5 g daily, normotensive, on the average
  diastolic pressure depression: 2 cm
Normotensive subjects; oral, 200 mg to 5 g daily, normotensive, orthostatic
  depression of blood pressure under orthostatic conditions: more substantial depression
Normotensive subjects; oral, 200 mg to 5 g daily, blood count, sedimentation rate, phosphatases, transaminases, azotemia, glycemia, creatinine clearance, ions, lipids etc.
  modifications in the electrocardiogram and numerous biological tests: No modifications were ever noted
Hypertensive subjects [5]; GAU... Albert, 5 x 400 mg daily 30 days + altizide 15 mg, spironolactone 25 mg, potassium chloride, prior 20/121/2
  blood pressure after treatment, standing: 14/9
Hypertensive subjects [5]; [13]
  blood pressure after treatment, recumbent: 16/10
  blood pressure after treatment, sitting: 16/10
Hypertensive subjects [5]; [14]
  digestive tolerance: Fair digestive tolerance
  systemic tolerance: Very good systemic tolerance
Hypertensive subjects [5]; GAU... Albert, + altizide, spironolactone, floating specks, headaches, dizziness, ear-buzzing
  functional signs: Improvement of the functional signs
Hypertensive subjects [5]; [15]
  blood pressure after treatment, sitting: 18/10
  blood pressure after treatment, standing: 17/9
Hypertensive subjects [5]; SUF... Auguste, 5 x 400 mg daily 30 days + furosemide 40 mg 3 times a week, potassium chloride, salt-free diet, prior 24/13
  blood pressure after treatment, recumbent: 18/10
Hypertensive subjects [5]; SUF... Auguste, + furosemide
  digestive and systemic tolerance: Very good digestive and systemic tolerance
Hypertensive subjects [5]; SUF... Auguste, + furosemide, floating specks, headaches, ear-buzzing
  functional signs: Marked decrease of the functional signs
Hypertensive subjects [5]; TRU... Yves, 4 x 400 mg daily + α-methyldopa 4 x 250 mg daily, one month, after α-methyldopa alone 20/11
  blood pressure after treatment, standing: 18/9
Hypertensive subjects [5]; [16]
  blood pressure after treatment, recumbent: 19/101/2
  blood pressure after treatment, sitting: 19/10
Hypertensive subjects [5]; TRU... Yves, + α-methyldopa, particularly the headaches
  functional signs: Marked decrease of the functional signs
Hypertensive subjects [5]; [17]
  duration of the action: three-fold
  reduction of the dosage of compound: about 50%
Hypertensive subjects [5]; combination with diuretics
  efficiency of combination with diuretics: particularly efficient combination
Hypertensive subjects [5]; combined with other anti-hypertensive materials currently used
  safety of combination: safely be combined
[6]
  toxic effect on chronic treatment: no toxic effect
[7]
  anti-hypertensive efficiency: substantial consistent efficiency
Hypertensive subjects [8]; BLA... Isaac
  systemic tolerance: Very good systemic tolerance
  taste on intake of the tablet: Bitter taste
Hypertensive subjects [8]; BLA... Isaac, 6 then 4 tablets of 400 mg daily, 15 days each, prior 20/13
  blood pressure after treatment, recumbent: 19/1
Hypertensive subjects [8]; BLA... Isaac, 6 then 4 tablets of 400 mg daily, 15 days each, prior 20/121/2
  blood pressure after treatment, sitting: 19/10
Hypertensive subjects [8]; BLA... Isaac, 6 then 4 tablets of 400 mg daily, 15 days each, prior 191/2/10
  blood pressure after treatment, standing: 141/2/10
Hypertensive subjects [8]; PER... Robert
  tolerance: Excellent tolerance
Hypertensive subjects [8]; PER... Robert, 2, 4, then 6 tablets of 400 mg per day, 28 days, prior 21/12
  blood pressure after treatment, sitting: 161/2/10
Hypertensive subjects [8]; PER... Robert, 2, 4, then 6 tablets of 400 mg per day, 28 days, prior 201/2/12
  blood pressure after treatment, standing: 17/10
Hypertensive subjects [8]; PER... Robert, 2, 4, then 6 tablets of 400 mg per day, 28 days, prior 211/2/12
  blood pressure after treatment, recumbent: 15/10
Hypertensive subjects [8]; PER... Robert, headaches, ear-buzzing
  functional signs: Disappearance of the functional signs
Hypertensive subjects [8]; after interruption of administration
  return of blood pressure to former levels after interruption: 3 to 4 days
Hypertensive subjects [8]; alone, 300 mg to 5 g daily
  onset of the depression: within a few hours or a few days
  troublesome orthostatic hypotension induced fits of faintness: None of the subjects
Hypertensive subjects [8]; alone, 300 mg to 5 g daily, standing
  blood pressure in standing position: more highly depressed, becoming close to normal or even attaining the normal value
Hypertensive subjects [8]; disappear when ingested in the middle of a meal and/or dosage decreased
  side-effect: a few cases of gastric pains and nausea
Hypertensive subjects [8]; fraction of patients, alone, 300 mg to 5 g daily, recumbent
  patients with moderate depression: One-fourth
Hypertensive subjects [8]; [18]
  hypertensive subjects with substantial depression of the blood pressure: more than half
  subjects non-influenced: Less than one-fourth
Hypertensive subjects [8]; [19]
  diastolic pressure depression in subjects with substantial depression: > 2 cm of mercury
  systolic pressure depression in subjects with substantial depression: > 4 cm of mercury
Hypertensive subjects [8]; [20]
  diastolic pressure depression in patients with moderate depression: about 1 cm
  systolic pressure depression in patients with moderate depression: about 2 cm
Hypertensive subjects [8]; oral, 200 mg to 5 g daily
  action: rapid but gradual action
  toxicity and tolerance: free from toxicity, well tolerated
Hypertensive subjects [8]; particularly with respect to the diastolic pressure
  effects on blood pressure versus diuretic drugs, α-methyldopa and other hypotensive agents: much more rapid and much more positive
Hypertensive subjects [8]; [21]
  effect on the diastolic pressure in Man: well established
  efficiency in Man: excellent efficiency
  toxicity in Man: free from toxicity
Teratogenicity in rats
  teratogenic effect: No teratogenic effect
[9]; in combination with diuretics, stated for the experimental hypertension models together
  anti-hypertensive efficiency in combination with diuretics: efficiency is extended
[9]; sino-carotid denervated hypertensive dogs
  anti-hypertensive efficiency: substantial consistent efficiency
[10]
  anti-hypertensive efficiency: substantial consistent efficiency

## C[C@](N)(Cc1ccc(O)c(O)c1)C(=O)O [α-methyldopa]
Hypertensive subjects [11]; 2, 4, then 6 tablets of 250 mg per day, one month, prior 22/12
  blood pressure after treatment with α-methyldopa, standing: 20/11
Hypertensive subjects [11]; 2, 4, then 6 tablets of 250 mg per day, one month, prior 23/12
  blood pressure after treatment with α-methyldopa, recumbent: 21/111/2
Hypertensive subjects [11]; 2, 4, then 6 tablets of 250 mg per day, one month, prior 23/111/2
  blood pressure after treatment with α-methyldopa, sitting: 21/111/2
Hypertensive subjects [11]; α-methyldopa alone, headaches, dizziness
  functional signs: Slight decrease of the functional signs
